Data taken from paper PMC10179272, “SARS-CoV-2 Binding and Neutralization Properties of Peptides Derived from N-Terminus of Human ACE2” (International Journal of Molecular Sciences, 2023).
Where a SMILES comes first, the peptide text is derived from it. Bridges are numbered along the chain shown (N, C = ends). [ ]: non-standard residue; d: D form. S5 = C=CCCC[C@](C)(N)C(=O)O

How the values were obtained:
[1] = system: full-length S protein of SARS-CoV-2 (Wuhan variant); format: binding; conditions: S protein 1 μg/mL coated; peptide incubated 2 h at RT; fluorescence 483 nm excitation/530 nm emission; result in words
[2] = system: full-length S protein of SARS-CoV-2 (Wuhan variant); experiment: Immunosorbent assay of P2 binding to immobilized S protein, detected with anti-P1 antibodies; conditions: P2 incubated 2 h at 37 °C; anti-P1 antibody 1 μg/mL, anti-rabbit IgG-HRP, TMB, A450-620; result in words
[3] = system: PVP with Wuhan variant S-protein
[4] = system: live SARS-CoV-2 virus (variant B.1.1)
[5] = system: full-length SARS-CoV-2 S protein (Wuhan variant); experiment: Competition of P1st with FAM-labeled peptides for S protein binding (fluorescent immunoassay); conditions: P1st at 25 μM; P1-FAM 3.25 to 25 μM; fluorescence intensity; result in words

For “TFLDKFNHEAEDLFYQ [SAP1, short ACE2 peptide, 16 aa, described previously [23]]”, the “Binding of FAM-labeled peptide to immobilized full-length S protein” value (“Binding of FAM-labeled peptide” below) [1] was “reasonable binding”.
For “STIEEQAKTFLDAFNHAAAALFAQSSLASWNY [P1m, control P1 with alanine substitutions of key amino acids]”, the “Binding of FAM-labeled peptide” value [1] was “failed to bind”.
For “MSTIEEQAKTFLDKFNHEAEDLFYQSSLASWNYNTNITEENVQNMNNAGDKWSAFLKEQSTLAQMYPLQEIQNLTVKLQLQALQ [P2]”, the “P2 binding to immobilized full-length S protein” value [2] was “demonstrated their binding ability”, the “Inhibition of PVP (Wuhan S protein) entry into ACE2-overexpressing cells” value ([3]; peptide 0 to 56 μM (Figure 3), […], flow cytometry, result in words) was “could not inhibit entry” and the “Inhibition of PVP (BA.1-like S protein) entry into ACE2-overexpressing cells” value (BA.1-like (Omicron) PVP; […], flow cytometry, result in words) was “failed to inhibit PVP entry”.
For `CC[C@H](C)[C@H](NC(=O)[C@@H](NC(=O)[C@H](CO)NC(C)=O)[C@@H](C)O)C(=O)N[C@@H](CCC(=O)O)C(=O)N[C@@H](CCC(=O)O)C(=O)N[C@@H](CCC(N)=O)C(=O)N[C@@H](C)C(=O)N[C@@H](CCCCN)C(=O)N[C@H](C(=O)N[C@@]1(C)CCCC=CCCC[C@@](C)(C(=O)N[C@@H](CC(N)=O)C(=O)N[C@@H](Cc2c[nH]cn2)C(=O)N[C@@H](CCC(=O)O)C(=O)N[C@@H](C)C(=O)N[C@@H](CCC(=O)O)C(=O)N[C@@H](CC(=O)O)C(=O)N[C@@H](CC(C)C)C(=O)N[C@@H](Cc2ccccc2)C(=O)N[C@@H](Cc2ccc(O)cc2)C(=O)N[C@@H](CCC(N)=O)C(=O)N[C@@]2(C)CCCC=CCCC[C@@](C)(C(=O)N[C@@H](Cc3c[nH]c4ccccc34)C(=O)N[C@@H](CC(N)=O)C(=O)N[C@@H](Cc3ccc(O)cc3)C(N)=O)NC(=O)[C@H](C)NC(=O)[C@H](CC(C)C)NC(=O)[C@H](CO)NC2=O)NC(=O)[C@H](CCCCN)NC(=O)[C@H](CC(=O)O)NC(=O)[C@H](CC(C)C)NC1=O)[C@@H](C)O` [P1st] (Ac-STIEEQAKT[S5]LDK[S5]NHEAEDLFYQ[S5]SLA[S5]WNY-NH2; staple 10-14, 25-29), the IC50 ([4]; live virus (variant B.1.1, 4 h)) was 7.04 µM, the “Competition with other peptides (P1-FAM, SAP) for binding to S protein” value [5] was “able to efficiently compete” and the IC50 ([3]; 48 h) was 25.4 µM. For the same compound, the IC50 (BA.1-like (Omicron) PVP; 48 h) was 18.3 µM.
For GKGDFRIL [SAP4, reference compound], the “Inhibitory activity on live SARS-CoV-2 infection of Vero cells at high concentration” value ([4]; 300 μM peptide, […], judged non-specific, result in words) was “Inhibitory activity”, the “Binding of FAM-labeled peptide” value [1] was “failed to bind” and the “Inhibitory activity on PVP (Wuhan S protein) entry at high concentration” value ([3]; 200 μM peptide, HEK/ACE2 cells, judged non-specific, result in words) was “Marked inhibitory activity”.
With “EDLFYQ [SAP6, short ACE2 peptide, 6 aa, described previously [23]]” the “Binding of FAM-labeled peptide” value [1] was “reasonable binding”.
“EDLFYQSSL [SAP2, short ACE2 peptide, 9 aa, described previously [23]]” was tested, and the “Binding of FAM-labeled peptide” value [1] was “reasonable binding”.
